Test [1] concerns the target T1, human SGLT2 protein modified to have LeuGluSerArgGlyProVal added to the carboxy-terminal final residue (Homo sapiens, UniProt P31639).
T1 construct: expressed in transfected cells; host or cells: CHO-K1
T1 sequence (P31639 with tags, fused parts or gaps): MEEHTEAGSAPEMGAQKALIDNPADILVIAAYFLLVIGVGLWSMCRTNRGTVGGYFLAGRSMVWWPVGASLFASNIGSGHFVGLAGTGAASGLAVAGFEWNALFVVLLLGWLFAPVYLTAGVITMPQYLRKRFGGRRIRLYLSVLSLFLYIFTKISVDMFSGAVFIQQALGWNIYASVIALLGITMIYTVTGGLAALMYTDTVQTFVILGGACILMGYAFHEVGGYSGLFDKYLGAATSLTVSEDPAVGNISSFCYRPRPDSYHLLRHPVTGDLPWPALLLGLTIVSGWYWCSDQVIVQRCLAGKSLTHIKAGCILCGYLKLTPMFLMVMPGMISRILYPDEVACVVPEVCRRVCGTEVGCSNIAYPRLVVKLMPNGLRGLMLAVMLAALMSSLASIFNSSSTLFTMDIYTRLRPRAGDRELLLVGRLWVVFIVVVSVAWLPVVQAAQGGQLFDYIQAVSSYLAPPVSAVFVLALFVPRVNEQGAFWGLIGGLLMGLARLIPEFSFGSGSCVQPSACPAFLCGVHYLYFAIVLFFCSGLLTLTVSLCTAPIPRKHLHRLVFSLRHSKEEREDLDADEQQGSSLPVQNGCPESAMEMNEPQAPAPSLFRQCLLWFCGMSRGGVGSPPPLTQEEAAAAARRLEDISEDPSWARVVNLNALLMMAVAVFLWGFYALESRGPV
Nature of the test: Inhibition test for sodium-dependent sugar uptake in CHO-K1 cells stably expressing human SGLT2, Method A. As to conditions: uptake 37° C., 60 minutes, read-out: IC50 for hSGLT2 Method A. It is filed as cell-based. The protocol:
(§1) (2) Creation of CHO-K1 Cells Stably Expressing Human SGLT2
Method A (described in WO2007/136116): A plasmid vector expressing human SGLT2 protein modified to have LeuGluSerArgGlyProVal added to the carboxy-terminal final residue was transfected into CHO-K1 cells using lipofectamine 2000 (Invitrogen). The cells were cultured in the presence of 500 μg/mL hygromycin B to select resistant strains, followed by screening in the system shown below using sugar uptake capacity as an indicator to obtain SGLT2-expressing cells.
(§2) (3) Inhibition Test for Sodium-Dependent Sugar Uptake in Stably Expressing Cells
(§3) The stably expressing cells prepared above were used in the following test.
(§4) Pretreatment buffer (140 mM choline chloride, 2 mM KCl, 1 mM CaCl2, 1 mM MgCl2, 10 mM HEPES/5 mM Tris, pH 7.4) was added in a volume of 200 μL to the cells stably expressing SGLT1 or 2 mL for Method A and 200 μL for Method B to the cells stably expressing SGLT2, followed by incubation for 20 minutes. The pretreatment buffer was removed and replaced by uptake buffer containing a test compound (1 mM methyl α-D-glucopyranoside (containing [^14C]methyl α-D-glucopyranoside), 140 mM NaCl, 2 mM KCl, 1 mM CaCl2, 1 mM MgCl2, 10 mM HEPES/5 mM Tris, pH 7.4) in a volume of 75 μL for SGLT1 and SGLT2 in Method B or 200 μL for SGLT2 in Method A. Uptake reaction was performed at 37° C. for 30 minutes (SGLT1) or 60 minutes (SGLT2). After the reaction, the cells were washed twice with washing buffer (10 mM methyl α-D-glucopyranoside, 140 mM choline chloride, 2 mM KCl, 1 mM CaCl2, 1 mM MgCl2, 10 mM HEPES/5 mM Tris, pH 7.4) in a volume of 200 μL for SGLT1 and SGLT2 in Method B or 2 mL for SGLT2 in Method A, and then dissolved in a 0.25 M NaOH solution (75 μL for SGLT1 and SGLT2 in Method B or 400 μL for SGLT2 in Method A). A liquid scintillator (Perkin Elmer) was added and mixed well with each sample, followed by measurement of radioactivity using a β-ray analyzer. For the control group, uptake buffer containing no test compound was prepared. Moreover, another uptake buffer containing choline chloride instead of NaCl was also prepared for basal uptake.
(§5) For determination of IC50 values, test compounds prepared at 6 appropriate concentrations were used and their concentrations required for 50% inhibition of the amount of sugar uptake (IC50 values) were calculated relative to the amount of sugar uptake in the control group (100%).

For a further test, the target named is T2, human SGLT2 (Homo sapiens, UniProt P31639).
T2 construct: expressed in transfected cells; host or cells: CHO-K1
T2 sequence (P31639 1-672): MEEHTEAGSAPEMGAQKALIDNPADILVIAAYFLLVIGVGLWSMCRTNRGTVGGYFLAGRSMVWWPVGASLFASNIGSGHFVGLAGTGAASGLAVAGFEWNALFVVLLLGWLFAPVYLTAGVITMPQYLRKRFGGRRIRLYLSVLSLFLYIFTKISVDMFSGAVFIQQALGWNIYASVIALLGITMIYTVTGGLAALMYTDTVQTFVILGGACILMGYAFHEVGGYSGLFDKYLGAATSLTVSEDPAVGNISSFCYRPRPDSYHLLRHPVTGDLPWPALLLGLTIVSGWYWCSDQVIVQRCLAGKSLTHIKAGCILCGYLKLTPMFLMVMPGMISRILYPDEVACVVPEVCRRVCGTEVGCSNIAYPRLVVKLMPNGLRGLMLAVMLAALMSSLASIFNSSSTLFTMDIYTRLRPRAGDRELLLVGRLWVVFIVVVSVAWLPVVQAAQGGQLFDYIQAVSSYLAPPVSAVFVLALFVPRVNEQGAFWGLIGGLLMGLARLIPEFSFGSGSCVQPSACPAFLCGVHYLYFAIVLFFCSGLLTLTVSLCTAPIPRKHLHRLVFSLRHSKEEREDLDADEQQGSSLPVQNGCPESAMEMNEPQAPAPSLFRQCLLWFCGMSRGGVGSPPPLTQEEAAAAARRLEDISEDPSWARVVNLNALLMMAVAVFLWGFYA
As to the kind of experiment: Inhibition test for sodium-dependent sugar uptake in CHO-K1 cells stably expressing human SGLT2, Method B. It is filed as cell-based. The note with it: uptake 37° C., 60 minutes, read-out: IC50 for hSGLT2 Method B. The method, then: as §1
Method B: A plasmid vector expressing human SGLT2 protein was transfected into CHO-K1 cells using lipofectamine LTX (Invitrogen). The cells were cultured in the presence of 1000 μg/mL geneticin to select resistant strains, followed by screening in the system shown below using sugar uptake capacity as an indicator to obtain SGLT2-expressing cells.
as §2, §3, §4, §5

Molecules are shown by their SMILES.

By IC50 is commonly meant the midpoint of a concentration-inhibition curve. On to `Cc1cc(/C=C/C(C)(C)C(=O)NC(C)(C)C(=O)NCCN(C)C)ccc1Cc1cc([C@@H]2O[C@H](CO)[C@@H](O)[C@H](O)[C@H]2O)c(O)cc1C(C)C` [Example 1-2], for which the half-inhibitory concentration (IC50) is 2690 nM in test [1] and 74 nM at human SGLT2.

Turning to `Cc1cc(/C=C/C(C)(C)C(=O)NC(C)(C)C(=O)N2CCC(N(C)C)CC2)ccc1Cc1cc([C@@H]2O[C@H](CO)[C@@H](O)[C@H](O)[C@H]2O)c(O)cc1C(C)C` [Example 5-2], the results for the IC50 (in test [1]; on human SGLT2) were 802 nM and 30 nM, respectively.

As for `Cc1cc(/C=C/C(C)(C)C(=O)NC(C)(C)C(=O)NCC(C)(C)N)ccc1Cc1cc([C@@H]2O[C@H](CO)[C@@H](O)[C@H](O)[C@H]2O)c(O)cc1C(C)C` [Example 6-2], the results for the IC50 (in test [1]; at human SGLT2) were 3110 nM and 64 nM, respectively.

Consider `COc1cc(C(C)C)c(Cc2ccc(/C=C/C(C)(C)C(=O)NC(C)(C)C(=O)NCC(C)(C)N)cc2C)cc1[C@@H]1O[C@H](CO)[C@@H](O)[C@H](O)[C@H]1O` [Example 13-2], for which the IC50 in test [1] amounted to 14800 nM; on human SGLT2 it was 322 nM.

For the compound `COc1cc(C(C)C)c(Cc2ccc(/C=C/C(C)(C)C(=O)NC(C)(C)C(=O)NCCN(C)C)cc2)cc1[C@@H]1O[C@H](CO)[C@@H](O)[C@H](O)[C@H]1O` [Example 15-2], the IC50 in test [1] came to 1280 nM; at human SGLT2, 20 nM.
